Several values for one entry are separate records, joined by “and”; a condition that tells them apart may be missing. Equal entries are not always repeated. Where two headings read alike, the source gives them in different places.
Experiments:
[1] = well-known value; cited from earlier work
hypogonadism in men = assay: Study of testosterone cypionate injections every 7 days (with anastrozole) in men, followed by blood work until stabilization; type: in vivo, human; conditions: for TT at week 5 / TT once stable: average total testosterone; for increase in PSA from start of treatment to stabilization / PSA level at stabilization / Hemoglobin at 5 weeks / Hemoglobin at stabilization: average; for average decrease in A1c: TC and anastrozole dosing
Excerpt: Patient hemoglobin and total testosterone (TT) levels were used in this Study to determine when a patient becomes “stable” on treatment. The terms “stable”, “stability”, “stabilized” and “stabilization” are defined in this Study as “the point at which a patient's symptoms have resolved, polycythemia has stopped, and TC dosage has remained consistent for at least 3 months.” Polycythemia associated with testosterone replacement therapy (TRT) has commonly been controlled through frequent patient blood donation. […] Several TT “normal” ranges can be found in the literature. For example, the Endocrine Society identifies the normal range for TT levels in males to be 264-916 ng/dL (1,17). However, LabCorp Diagnostics has used the previously accepted “normal” range of 348-1197 ng/dL until 2017 and Quest Diagnostics uses a reference range of 250-1110 ng/dL.
Patients' responses to TC injections administered every 7 days were tracked and the resulting effects of TC dosing on cholesterol, A1c, and PSA levels were documented once stable TT levels were reached.
Subjects: Two cohorts were studied. The two cohorts studied were males that had previously been on TRT and males who had never been on any form of TRT. Blood work was collected from all patients at their initial visit, after 1 month of treatment, after 3 months of treatment, and then at 6 months, 9 months, 12 months, etc. as patients continued treatment. Data was collected for each cohort including the length of time that it took to stabilize on treatment and the average dosage injected weekly once patients had reached stabilization.
However, in this Study TC injections were administered every 7 days, and blood samples were collected at 7 days post-TC injection and after at least 4 consecutive weeks of injections. […] Collecting blood samples at the 4-week mark provides more consistent, accurate, and useful information regarding the TT blood level than if the samples are collected earlier.
Blood samples were then sent to an outsourced laboratory, Lab Tech Diagnostics. Samples were drawn at the patient's initial visit, after their first 4 consecutive TC injections, after 3 months of treatment, and at 3-month intervals thereafter. Testosterone, estradiol, and hemoglobin levels were tracked with every blood sample. PSA and cholesterol levels were checked every 3 months. A1c levels were checked with initial blood work, and then once per year if A1c was within normal limits (WNL) or every 3 months if A1c was >5.6.
Given, the primary goal was to determine a stabilization point such that the patient achieved maximum benefit with minimal side effects (e.g., elimination of polycythemia) from the treatment, the challenge was to identify a TC dose at which the patient's hemoglobin stopped increasing. […] Patients were advised to start 81 mg aspirin daily if their hemoglobin started increasing after starting treatment. […] Dosage adjustments of TC were made in 20 mg (0.1 ml) increments. Assessment of new dosages were not made until after four consecutive injections at the new dose and at 7 days after their last injection. After analysis of data, there were notable similarities in the Total Testosterone, estradiol, and hemoglobin levels once patients reached stabilization on treatment. There were also differences seen between patients that had been on TRT in the past through other clinics and those that started treatment with our clinic. Patients who had previously been on TRT took longer to stabilize on therapy than those who had never been on TRT.

[2] = in humans; cited from earlier work
[3] = patients never on TRT, starting TT level 347.77 ng/dl
[4] = patients previously on TRT, starting TT level 479.83 ng/dl
[5] = patients never on TRT, initial 15.06 g/dl
[6] = patients previously on TRT, initial 15.78 g/dl

## C[C@]12CC[C@H]3[C@@H](CCC4=CC(=O)CC[C@@]43C)[C@@H]1CC[C@@H]2OC(=O)CCC1CCCC1 [TC, testosterone cypionate]
[1]
  half-life: 170 to 190 h
Hypogonadism in men; 7-day testosterone level <600
  symptoms at low 7-day testosterone level: almost all patients were still experiencing symptoms of testicular hypofunction
Hypogonadism in men; 60 patients in the study
  patients who developed prostate cancer: No patients
Hypogonadism in men; TC and anastrozole dosing as described in the study
  common increase in cholesterol levels seen with excessive TC dosing: Elimination
Hypogonadism in men; TT levels >1050
  side effects seen at higher TT levels: acne, aggression, erectile dysfunction, difficulty losing weight, extremely elevated estradiol levels, hair loss, and increased body hair
Hypogonadism in men; all patients in the study, drawn 7 days after injection
  TT level at which patients stabilized (range): 605 to 1051 ng/dL
Hypogonadism in men; [3]
  TT at week 5: 705.43 ng/dL
  TT once stable: 794.53 ng/dL
Hypogonadism in men; [4]
  TT at week 5: 805.9 ng/dL and 805.90 ng/dL
  TT once stable: 780.1 ng/dL and 780.10 ng/dL
Hypogonadism in men; patients never on TRT
  increase in PSA from start of treatment to stabilization: 26.89%
  TT level at stabilization (range): 641 to 1051 ng/dL
Hypogonadism in men; patients never on TRT, initial 0.859 ng/ml
  PSA level at stabilization: 1.090 ng/mL
Hypogonadism in men; [5]
  Hemoglobin at 5 weeks: 15.33 g/dL
  Hemoglobin at stabilization: 15.79 g/dL
Hypogonadism in men; patients previously on TRT
  increase in PSA from start of treatment to stabilization: 14.36%
  average decrease in A1c: 0.14%
  TT level at stabilization (range): 605 to 1020 ng/dL
Hypogonadism in men; patients previously on TRT, initial 1.017 ng/ml
  PSA level at stabilization: 1.163 ng/mL
Hypogonadism in men; [6]
  Hemoglobin at 5 weeks: 16.22 g/dL
  Hemoglobin at stabilization: 15.70 g/dL
Hypogonadism in men; inconsistent timing and dosage
  side effects when not consistent with both TC and anastrozole dosing: frequently experienced acne, mood swings, and elevating hemoglobin
Hypogonadism in men; once a patient reached stability on treatment
  polycythemia (need to donate blood): eliminated
Hypogonadism in men; once stable on treatment
  chief complaints/symptoms (Table 1) as reported by the patient: well-controlled
Hypogonadism in men; patients not previously on TRT
  average decrease in A1c: 0.39%
Hypogonadism in men; patients previously on TRT in any form versus patients never on TRT
  average time longer to stabilize: 9.7 months

## CC(C)(C#N)c1cc(Cn2cncn2)cc(C(C)(C)C#N)c1 [anastrozole]
[2]
  half-life: 30 to 60 h
Hypogonadism in men; in vivo
  side effects when anastrozole was started at the beginning of treatment: frequently experienced hot flashes or joint pains

## CC(=O)Oc1ccccc1C(=O)O [aspirin]
Hypogonadism in men; 81 mg daily, patients on TC whose hemoglobin started increasing
  effect of adding aspirin on hemoglobin levels: helped to either decrease hemoglobin levels or slow the rate of increase of hemoglobin levels

— patent publication US20250073245A1, “COMPOSITION AND METHOD OF TREATING HYPOGONADISM IN MEN” (priority 2023, published 2025)
